These compounds were tested against T1, HDAC6 enzyme (Homo sapiens, UniProt Q9UBN7) (assay: HDAC6 enzyme inhibitory activity (HDAC-Glo I/II Assay kit)). Details: 10 μM; wells without enzyme = 100% inhibition; read-out: HDAC6 inhibitory rate (%) (10 μM).
T1 construct: transducing full length HDAC6 gene into Sf-9 insect cells; GST; purchased SignalChem; host or cells: Sf-9 insect cells
T1 sequence (Q9UBN7 1-1215): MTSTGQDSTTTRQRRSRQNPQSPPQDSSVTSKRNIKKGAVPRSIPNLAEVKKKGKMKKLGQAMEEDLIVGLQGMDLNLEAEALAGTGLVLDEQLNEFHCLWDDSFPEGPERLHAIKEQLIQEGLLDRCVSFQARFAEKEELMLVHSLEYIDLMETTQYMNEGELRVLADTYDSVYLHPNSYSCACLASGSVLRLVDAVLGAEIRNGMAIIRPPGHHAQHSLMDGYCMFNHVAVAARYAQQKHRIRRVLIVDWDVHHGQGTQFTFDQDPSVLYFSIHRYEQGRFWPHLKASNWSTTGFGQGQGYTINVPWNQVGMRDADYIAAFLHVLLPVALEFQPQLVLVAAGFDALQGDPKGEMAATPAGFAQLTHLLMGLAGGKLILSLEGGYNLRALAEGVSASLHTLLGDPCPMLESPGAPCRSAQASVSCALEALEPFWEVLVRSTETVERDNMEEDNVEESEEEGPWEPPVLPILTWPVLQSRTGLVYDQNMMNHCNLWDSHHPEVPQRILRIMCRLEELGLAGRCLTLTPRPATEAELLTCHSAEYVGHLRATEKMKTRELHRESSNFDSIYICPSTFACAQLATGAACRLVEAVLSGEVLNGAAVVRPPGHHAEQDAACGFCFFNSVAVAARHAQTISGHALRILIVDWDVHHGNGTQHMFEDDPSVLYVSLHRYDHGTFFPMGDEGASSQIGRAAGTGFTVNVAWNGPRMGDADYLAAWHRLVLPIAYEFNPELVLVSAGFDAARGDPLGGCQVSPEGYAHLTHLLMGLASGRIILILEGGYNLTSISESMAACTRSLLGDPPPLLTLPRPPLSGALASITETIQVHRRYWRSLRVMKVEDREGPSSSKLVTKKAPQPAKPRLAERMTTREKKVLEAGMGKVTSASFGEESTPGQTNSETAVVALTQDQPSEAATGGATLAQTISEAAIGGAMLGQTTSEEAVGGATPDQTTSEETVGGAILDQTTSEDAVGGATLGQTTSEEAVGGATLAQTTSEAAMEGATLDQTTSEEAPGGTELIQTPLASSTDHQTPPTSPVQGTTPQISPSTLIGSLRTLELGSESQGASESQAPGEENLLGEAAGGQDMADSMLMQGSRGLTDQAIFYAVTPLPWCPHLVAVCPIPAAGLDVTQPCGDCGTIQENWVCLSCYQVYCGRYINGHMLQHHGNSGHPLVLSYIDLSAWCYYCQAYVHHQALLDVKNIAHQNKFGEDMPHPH
Format: biochemical
Summary of the method: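 Luminescence read-out after 20 min reaction with HDAC-Glo substrate-developer, following 60 min room-temperature preincubation of compound with Sf-9-expressed, GST-purified full-length enzyme. Inhibition is relative to no-enzyme wells set as 100%.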

SMILES	inhibition at 10 µM
O=C1c2cc(-c3nnc(C(F)F)o3)cnc2CN1[C@@H]1CCCC[C@H]1N1C(=O)c2ccccc2C1=O [Example 186, 2-((1R,2R)-2-(3-(5-(difluoromethyl)-1,3,4-oxadiazol-2-yl)-5-oxo-5,7-dihydro-6H-pyrrolo[3,4-b]pyridin-6-yl)cyclohexyl)-H-isoindole-1,3(2H)-dione]	101%
O=C1c2cc(-c3nnc(C(F)F)o3)ccc2CN1C1(C(=O)NCC(F)(F)F)CC1 [Example 187, 1-(6-(5-(difluoromethyl)-1,3,4-oxadiazol-2-yl)-1-oxo-1,3-dihydro-2H-isoindol-2-yl)-N-(2,2,2-trifluoroethyl)cyclopropanecarboxamide]	92%
Cn1cc(-c2ccccc2)c(N2Cc3ccc(-c4nnc(C(F)F)o4)cc3C2=O)n1 [Example 188, 6-(5-(difluoromethyl)-1,3,4-oxadiazol-2-yl)-2-(1-methyl-4-phenyl-1H-pyrazol-3-yl)isoindolin-1-one]	98%
O=C(N[C@@H]1COCC[C@H]1N1Cc2c(F)cc(-c3nnc(C(F)F)o3)cc2C1=O)c1ccccc1Cl [Example 189, 2-chloro-N-((3S,4R)-4-(6-(5-(difluoromethyl)-1,3,4-oxadiazol-2-yl)-4-fluoro-1-oxo-1,3-dihydro-2H-isoindol-2-yl)tetrahydro-2H-pyran-3-yl)benzamide]	100%
O=C(N[C@@H]1COCC[C@H]1N1Cc2c(F)cc(-c3nnc(C(F)F)o3)cc2C1=O)c1cccc(Cl)c1 [Example 190, 3-chloro-N-((3S,4R)-4-(6-(5-(difluoromethyl)-1,3,4-oxadiazol-2-yl)-4-fluoro-1-oxo-1,3-dihydro-2H-isoindol-2-yl)tetrahydro-2H-pyran-3-yl)benzamide]	100%
CCC(=O)N[C@@H]1COCC[C@H]1N1Cc2c(F)cc(-c3nnc(C(F)F)o3)cc2C1=O [Example 191, N-((3S,4R)-4-(6-(5-(difluoromethyl)-1,3,4-oxadiazol-2-yl)-4-fluoro-1-oxo-1,3-dihydro-2H-isoindol-2-yl)tetrahydro-2H-pyran-3-yl)propanamide]	101%
CC(C)(C)OC(=O)N1CC[C@@H](N2Cc3ncc(-c4nnc(C(F)F)o4)cc3C2=O)[C@@H](c2ccccc2)C1 [Example 192, tert-butyl (3S,4R)-4-(3-(5-(difluoromethyl)-1,3,4-oxadiazol-2-yl)-5-oxo-5,7-dihydro-6H-pyrrolo[3,4-b]pyridin-6-yl)-3-phenylpiperidine-1-carboxylate]	100%
O=C1c2cc(-c3nnc(C(F)F)o3)cnc2CN1[C@@H]1CCNC[C@@H]1c1ccccc1 [Example 193, 3-(5-(difluoromethyl)-1,3,4-oxadiazol-2-yl)-6-((3S,4R)-3-phenylpiperidin-4-yl)-6,7-dihydro-5H-pyrrolo[3,4-b]pyridin-5-one]	102%
COC(=O)N1CC[C@@H](N2Cc3ncc(-c4nnc(C(F)F)o4)cc3C2=O)[C@@H](c2ccccc2)C1 [Example 194, methyl (3S,4R)-4-(3-(5-(difluoromethyl)-1,3,4-oxadiazol-2-yl)-5-oxo-5,7-dihydro-6H-pyrrolo[3,4-b]pyridin-6-yl)-3-phenylpiperidine-carboxylate]	100%
O=C1c2cc(-c3nnc(C(F)F)o3)cc(F)c2CN1C[C@H]1COCCN1S(=O)(=O)C1CC1 [Example 197, 2-(((3S)-4-(cyclopropylsulfonyl)morpholin-3-yl)methyl)-6-(5-(difluoromethyl)-1,3,4-oxadiazol-2-yl)-4-fluoroisoindolin-1-one]	100%
Cc1ccc(S(=O)(=O)N2CCOC[C@@H]2CN2Cc3c(F)cc(-c4nnc(C(F)F)o4)cc3C2=O)cc1 [Example 198, 6-(5-(difluoromethyl)-1,3,4-oxadiazol-2-yl)-4-fluoro-2-(((3S)-4-((4-methylphenyl)sulfonyl)morpholin-3-yl)methyl)isoindolin-1-one]	99%
O=C1c2cc(-c3nnc(C(F)F)o3)cc(F)c2CN1C[C@H]1COCCN1S(=O)(=O)CC(F)(F)F [Example 199, 6-(5-(difluoromethyl)-1,3,4-oxadiazol-2-yl)-4-fluoro-2-(((3S)-4-((2,2,2-trifluoroethyl)sulfonyl)morpholin-3-yl)methyl)isoindolin-1-one]	100%
O=C1c2cc(-c3nnc(C(F)F)o3)cc(F)c2CN1[C@@H]1CCOC[C@H]1NC(=O)C1(C(F)(F)F)CC1 [Example 201, N-((3S,4R)-4-(6-(5-(difluoromethyl)-1,3,4-oxadiazol-2-yl)-4-fluoro-1-oxo-1,3-dihydro-2H-isoindol-2-yl)tetrahydro-2H-pyran-3-yl)-1-(trifluoromethyl)cyclopropanecarboxamide]	101%

The next lines start with the values.

inhibition at 10 µM	SMILES
99%	CCC(=O)N[C@@H]1CCCC[C@H]1N1Cc2c(F)cc(-c3nnc(C(F)F)o3)cc2C1=O [Example 182, N-((1R,2R)-2-(6-(5-(difluoromethyl)-1,3,4-oxadiazol-2-yl)-4-fluoro-1-oxo-1,3-dihydro-2H-isoindol-2-yl)cyclohexyl)propanamide]
99%	O=C1c2cc(-c3nnc(C(F)F)o3)cc(F)c2CN1[C@@H]1CCCC[C@H]1NC(=O)C(F)(F)F [Example 183, N-((1R,2R)-2-(6-(5-(difluoromethyl)-1,3,4-oxadiazol-2-yl)-4-fluoro-1-oxo-1,3-dihydro-2H-isoindol-2-yl)cyclohexyl)-2,2,2-trifluoroacetamide]
102%	CC(F)(F)C(=O)N[C@@H]1CCCC[C@H]1N1Cc2c(F)cc(-c3nnc(C(F)F)o3)cc2C1=O [Example 184, N-((1R,2R)-2-(6-(5-(difluoromethyl)-1,3,4-oxadiazol-2-yl)-4-fluoro-1-oxo-1,3-dihydro-2H-isoindol-2-yl)cyclohexyl)-2,2-difluoropropanamide]
100%	O=C(N[C@@H]1CCCC[C@H]1N1Cc2c(F)cc(-c3nnc(C(F)F)o3)cc2C1=O)[C@@H]1CC1(F)F [Example 185, (1S)-N-((1R,2R)-2-(6-(5-(difluoromethyl)-1,3,4-oxadiazol-2-yl)-4-fluoro-1-oxo-1,3-dihydro-2H-isoindol-2-yl)cyclohexyl)-2,2-difluorocyclopropanecarboxamide]
100%	CCC(F)(F)C(=O)N[C@@H]1CCCC[C@H]1N1Cc2ncc(-c3nnc(C(F)F)o3)cc2C1=O [Example 195, N-((1R,2R)-2-(3-(5-(difluoromethyl)-1,3,4-oxadiazol-2-yl)-5-oxo-5,7-dihydro-6H-pyrrolo[3,4-b]pyridin-6-yl)cyclohexyl)-2,2-difluorobutanamide]
100%	O=C1c2cc(-c3nnc(C(F)F)o3)cnc2CN1[C@@H]1CCCC[C@H]1NC(=O)C(F)(F)C(F)(F)F [Example 196, N-((1R,2R)-2-(3-(5-(difluoromethyl)-1,3,4-oxadiazol-2-yl)-5-oxo-5,7-dihydro-6H-pyrrolo[3,4-b]pyridin-6-yl)cyclohexyl)-2,2,3,3,3-pentafluoropropanamide]
100%	O=C1c2cc(-c3nnc(C(F)F)o3)cc(F)c2CN1[C@@H]1CCOC[C@H]1NC(=O)C(F)(F)C(F)(F)F [Example 200, N-((3S,4R)-4-(6-(5-(difluoromethyl)-1,3,4-oxadiazol-2-yl)-4-fluoro-1-oxo-1,3-dihydro-2H-isoindol-2-yl)tetrahydro-2H-pyran-3-yl)-2,2,3,3,3-pentafluoropropanamide]
101%	CC(C)(C(=O)N[C@@H]1COCC[C@H]1N1Cc2c(F)cc(-c3nnc(C(F)F)o3)cc2C1=O)C(F)(F)F [Example 202, N-((3S,4R)-4-(6-(5-(difluoromethyl)-1,3,4-oxadiazol-2-yl)-4-fluoro-1-oxo-1,3-dihydro-2H-isoindol-2-yl)tetrahydro-2H-pyran-3-yl)-3,3,3-trifluoro-2,2-dimethylpropanamide]
100%	CCC(F)(F)C(=O)N[C@@H]1COCC[C@H]1N1Cc2c(F)cc(-c3nnc(C(F)F)o3)cc2C1=O [Example 203, N-((3S,4R)-4-(6-(5-(difluoromethyl)-1,3,4-oxadiazol-2-yl)-4-fluoro-1-oxo-1,3-dihydro-2H-isoindol-2-yl)tetrahydro-2H-pyran-3-yl)-2,2-difluorobutanamide]

Reference: patent US10435399B2, “HDAC6 inhibitory heterocyclic compound” (TAKEDA PHARMACEUTICAL COMPANY LIMITED, priority 2017, dated 2019)
